What was measured:
Test in all cases: relative viability (nuclei count vs DMSO), 5 days (fraction); higher = more cells survive
[1] = compound: CC1=CN2C(=O)C=C(N=C2C(=C1)C(C)NC3=CC=CC=C3)N4CCOCC4 [TGX 221] + CC(C)C[C@H](NC(=O)[C@H](Cc1ccccc1)NC(=O)c1cnccn1)B(O)O [Bortezomib] (partner 0.002 µM)
Summary of the method: (§1)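 One day after seeding in 1536-well plates, lung cancer cell lines were dosed by pin tool. Dosing was either single-drug or a fixed anchor-drug dose plus five library-drug doses (not always all listed) in √10 steps. After 5 days, nuclei were stained in one fix-and-stain step and counted on 4× images, and relative viability is the nuclei count of treated wells over that of vehicle wells, given as the median of duplicate plates.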

[2] = compound: O=C(CCCCCCNC(=O)c1cnc(N(c2ccccc2)c2ccccc2)nc1)NO [Ricolinostat] + C[C@@H](Oc1cc(-c2cnn(C3CCNCC3)c2)cnc1N)c1c(Cl)ccc(F)c1Cl [Crizotinib] (partner 1 µM)
Summary of the method: as §1

[3] = compound: O=C(CCCCCCNC(=O)c1cnc(N(c2ccccc2)c2ccccc2)nc1)NO [Ricolinostat] + COc1cc2c(Oc3ccc(NC(=O)C4(C(=O)Nc5ccc(F)cc5)CC4)cc3F)ccnc2cc1OCCCN1CCOCC1 [Foretinib] (partner 0.25 µM)
Summary of the method: as §1

[4] = compound: O=C(CCCCCCNC(=O)c1cnc(N(c2ccccc2)c2ccccc2)nc1)NO [Ricolinostat] + CS(=O)(=O)CCNCc1ccc(-c2ccc3ncnc(Nc4ccc(OCc5cccc(F)c5)c(Cl)c4)c3c2)o1 [Lapatinib] (partner 2 µM)
Summary of the method: as §1

| Cell Line | relative viability ([1]; first compound 0.08 µM) | relative viability ([1]; first compound 0.253 µM) | relative viability ([1]; first compound 0.8 µM) | relative viability ([1]; first compound 2.53 µM) | relative viability ([1]; first compound 8 µM) | relative viability ([2]; first compound 0.08 µM) | relative viability ([2]; first compound 0.253 µM) | relative viability ([2]; first compound 0.8 µM) | relative viability ([2]; first compound 2.53 µM) | relative viability ([3]; first compound 0.08 µM) | relative viability ([3]; first compound 0.253 µM) | relative viability ([3]; first compound 0.8 µM) | relative viability ([3]; first compound 2.53 µM) | relative viability ([4]; first compound 0.08 µM) | relative viability ([4]; first compound 0.253 µM) | relative viability ([4]; first compound 0.8 µM) | relative viability ([4]; first compound 2.53 µM) |
| --- | --- | --- | --- | --- | --- | --- | --- | --- | --- | --- | --- | --- | --- | --- | --- | --- | --- |
| LU99A | 1.06 | 0.887 | 1.04 | 1.04 | 1.09 | 0.581 | 0.604 | 0.38 | 0.409 | 0.727 | 0.631 | 0.734 | 0.571 | 0.833 | 0.853 | 0.846 | 0.541 |
| LXF-289 | 1.02 | 0.979 | 0.915 | 0.974 | 1.06 | 0.804 | 0.852 | 0.804 | 0.719 | 0.987 | 0.895 | 0.947 | 0.967 | 0.847 | 0.907 | 0.897 | 0.731 |
| NCI-H23 | 0.861 | 1.21 | 1.11 | 1.03 | 0.963 | 0.534 | 0.565 | 0.665 | 0.445 | 0.999 | 0.898 | 0.97 | 1.13 | 1.16 | 1.25 | 0.998 | 0.773 |
| NCI-H322M | 1.15 | 1.09 | 1.15 | 1.18 | 1.11 |  | 0.913 | 0.818 | 0.751 |  | 0.964 | 0.893 | 0.928 |  | 0.494 | 0.624 | 0.66 |
| NCI-H460 | 0.724 | 0.922 | 1.02 | 1.11 | 1 | 1.01 | 0.924 | 0.84 | 0.645 | 0.972 | 0.927 | 1.04 | 1.04 | 0.844 | 0.91 | 1.02 | 0.764 |
| NCI-H520 | 0.345 | 0.457 | 0.56 | 0.263 | 0.309 |  | 0.667 | 0.707 | 0.782 |  | 0.889 | 0.89 | 0.688 |  | 0.745 | 0.851 | 0.786 |
| NCI-H596 | 1.17 | 1.21 | 0.938 | 0.871 | 0.948 | 0.967 | 0.963 | 0.977 | 0.959 | 0.922 | 0.825 | 0.857 | 0.924 | 0.985 | 1.08 | 1 | 0.743 |
| NCI-H647 | 0.929 | 0.66 | 0.926 | 0.676 | 0.616 | 1.08 | 1.05 | 1.01 | 0.661 | 1 | 1 | 1.01 | 1.02 | 0.915 | 1.11 | 1.07 | 0.627 |
| NCI-H650 | 0.697 | 0.748 | 0.721 | 0.639 | 0.791 |  | 0.811 | 0.529 | 0.63 | 0.957 | 0.997 | 0.872 | 0.8 |  | 0.888 | 0.734 | 0.504 |
| NCI-H661 | 0.689 | 0.59 | 0.75 | 0.677 | 0.668 |  | 0.99 | 0.973 | 0.984 | 0.849 | 0.983 | 1 | 0.81 |  | 0.544 | 0.542 | 0.72 |
| NCI-H727 | 0.827 | 0.829 | 1.03 | 0.737 | 0.893 | 0.748 | 0.782 | 0.802 | 0.704 | 0.746 | 0.741 | 0.948 | 0.884 | 0.523 | 1.02 | 0.862 | 0.77 |
| NCI-H838 | 0.751 | 0.853 | 0.713 | 0.712 | 0.544 | 0.672 | 0.896 | 0.899 | 0.731 | 0.9 | 1.07 | 1.06 | 0.941 | 0.683 | 1.08 | 0.955 | 0.873 |
| NCI-H1299 | 0.985 | 1 | 0.989 | 1.03 | 0.948 | 0.928 | 0.917 | 0.974 | 0.891 | 1.05 | 1.07 | 1.07 | 1.06 | 0.941 | 0.871 | 0.902 | 0.895 |
| NCI-H1355 | 1.18 | 1.16 | 1.26 | 1.12 | 1.08 |  | 1.01 | 0.995 | 1.02 | 0.953 | 0.978 | 0.976 | 0.873 |  | 1.01 | 1 | 0.863 |
| NCI-H1437 | 0.535 | 0.53 | 0.522 | 0.414 | 0.486 | 0.825 | 0.931 | 0.918 | 0.765 | 1.12 | 1.28 | 1.17 | 1.05 | 0.705 | 0.767 | 0.714 | 0.642 |
| NCI-H1563 | 0.925 | 0.783 | 0.795 | 0.719 | 0.687 | 0.862 | 0.822 | 0.732 | 0.689 | 0.89 | 0.874 | 0.844 | 0.793 | 0.898 | 0.927 | 0.97 | 0.834 |
| NCI-H1650 | 0.2 | 0.22 | 0.213 | 0.198 | 0.201 | 1.04 | 0.926 | 0.714 | 0.784 | 1.17 | 1.05 | 0.886 | 0.635 | 0.577 | 0.72 | 0.6 | 0.752 |
| NCI-H1651 |  | 0.96 | 0.919 | 0.868 | 0.858 | 0.843 | 0.84 | 0.88 | 0.816 | 0.852 | 0.812 | 0.746 | 0.776 | 0.6 | 0.702 | 0.731 | 0.636 |

From the supplement of paper PMC10307832
